Reference: US20260250320A1, “LIPIDATED PEPTIDE INHIBITORS OF INTERLEUKIN-23 RECEPTOR” (Janssen Pharmaceutica NV, priority 2023, published 2026)
*1 amine or outer side, *2 acyl side, *3 side chain or, on linkers, in order; H or OH if unused. Where a SMILES comes first, the peptide text is derived from it. Bridges are numbered along the chain shown (N, C = ends). Side-chain parts run from the residue outwards. [ ]: non-standard residue; d: D form. The star is where a group is joined. X29 = C[C@H](CCCCNC(=O)COCCOCCNC(=O)COCCOCCNC(=O)CC[C@H](NC(=O)CCCCCCCCCCCCCCCCC(=O)O)C(=O)O)C(=O)C[C@H](C(=O)[*:1])C(C)(C)S[*:2]; X27 = C[N+](C)(CCNC(=O)COCCOCCNC(=O)COCCOCCNC(=O)CC[C@H](NC(=O)CCCCCCCCCCCCCCCCCCC(=O)O)C(=O)O)CC(=O)*; X22 = O=C(O)CCCCCCCCCCCCCCCCC(=O)N[C@@H](CCC(=O)NCCOCCOCC(=O)NCCCCCOCC(=O)*)C(=O)O; X15 = C[N+](C)(C)CCOCCOCCC(=O)C[C@H](CCCCN[*:1])C(=O)[*:2]; Me3N+(CH2)2O(CH2)2O(CH2)2CO = C[N+](C)(C)CCOCCOCCC(=O)*; PEG12 = NCCOCCOCCOCCOCCOCCOCCOCCOCCOCCOCCOCCOCCC(=O)O; CH2CH2OCH2CH2OCH2CH2NMe3+ = C[N+](C)(C)CCOCCOCC*; dTrp(7-Me) = Cc1cccc2c(C[C@@H](N)C(=O)O)c[nH]c12; Biotin = O=C1N[C@H]2[C@H](CS[C@H]2CCCCC(=O)*)N1; Trp(7-Me) = Cc1cccc2c(C[C@H](N)C(=O)O)c[nH]c12; C18 diacid = O=C(O)CCCCCCCCCCCCCCCCC(=O)*; γGlu = O=C(O)[C@H](CCC(=O)[*:2])N[*:1]; 2Nal = N[C@@H](Cc1ccc2ccccc2c1)C(=O)O; AEF = NCCOc1ccc(C[C@H](N)C(=O)O)cc1; X2 = C[N+](C)(C)C[C@@H](CC(=O)O)N*; 3Pal = N[C@@H](Cc1cccnc1)C(=O)O; Lys(Me) = CNCCCC[C@H](N)C(=O)O; PEG4 = NCCOCCOCCOCCOCCC(=O)O; Pen = CC(C)(S)[C@H](N)C(=O)O; Suc = O=C(CCC(=O)[*:2])[*:1]; Thp = NC1(C(=O)O)CCOCC1; X1 = C[N+](C)(C)CCCCC*; AEEA = NCCOCCOCC(=O)O; Sar = CNCC(=O)O

Columns and labels:
[1] = target: T1, IL-23R (Homo sapiens, UniProt Q5VWK5); assay: IL23R Reporter Assay; type: cell-based; settings: HEK293 cells containing IL-23R, IL-12Rβ1 and STAT-inducible firefly luciferase reporter; 10 ng/mL IL-23 (EC90); 5 h
T1 construct: HEK293 cells containing IL-23R, IL-12Rβ1 and a firefly luciferase reporter gene driven by a STAT-inducible promoter (Promega); host or cells: HEK293
T1 sequence (Q5VWK5 24-629): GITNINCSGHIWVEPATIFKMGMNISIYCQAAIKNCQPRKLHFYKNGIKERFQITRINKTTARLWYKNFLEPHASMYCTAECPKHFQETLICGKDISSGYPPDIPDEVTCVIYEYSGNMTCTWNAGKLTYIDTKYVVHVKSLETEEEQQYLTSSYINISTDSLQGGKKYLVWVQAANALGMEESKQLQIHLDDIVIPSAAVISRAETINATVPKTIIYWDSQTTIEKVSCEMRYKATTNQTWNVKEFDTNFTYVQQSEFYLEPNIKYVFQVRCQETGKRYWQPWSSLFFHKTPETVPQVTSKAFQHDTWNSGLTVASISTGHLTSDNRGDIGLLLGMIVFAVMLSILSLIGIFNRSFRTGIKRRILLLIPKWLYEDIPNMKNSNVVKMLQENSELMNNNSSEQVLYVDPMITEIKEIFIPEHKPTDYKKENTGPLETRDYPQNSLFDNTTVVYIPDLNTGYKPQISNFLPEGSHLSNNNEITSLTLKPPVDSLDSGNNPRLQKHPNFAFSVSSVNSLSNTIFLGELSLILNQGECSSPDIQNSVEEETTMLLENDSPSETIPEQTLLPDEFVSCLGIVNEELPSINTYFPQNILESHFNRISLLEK
Method in brief: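 HEK293 cells carrying IL-23R, IL-12Rβ1 and a STAT-driven firefly luciferase reporter (4000 cells/well) received compound, then 10 ng/mL IL-23 solution (EC90), and were incubated for 5 h at 37° C. BioGlo luminescence was normalised to IL-23 alone (0%) and 30 μM control inhibitor (100%). IC50 came from a 4-parameter Hill fit.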

[2] = test system: IL-23-stimulated phosphorylated STAT3 in peripheral blood mononuclear cells (PBMCs); assay: PBMC pSTAT3 Assay; type: cell-based; settings: PBMCs from healthy donors; 30 min preincubation with peptide; IL-23 5 ng/mL for 30 min; phospho-STAT3 by MSD
Method in brief: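 Healthy-donor PBMCs expanded 4 days on anti-CD3 with 100 ng/mL IL-1β, starved ~4 h in RPMI-0.1% BSA, preincubated 30 min with peptide, then stimulated 30 min at 37 °C with 5 ng/mL IL-23. Lysate pSTAT3 measured by MSD phospho-STAT panel; IC50 derived.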

Row | Structure (SMILES) | IC50 [1] | IC50 [2]
1 | CC(=O)N(C)CCCC[C@@H]1NC(=O)[C@H](Cc2c[nH]c3c(C)cccc23)NC(=O)[C@H]([C@@H](C)O)NC(=O)[C@H](CC(=O)N(C)C)NC(=O)[C@@H](NC(=O)[C@@H](CCCCNC(=O)CCOCCOCCOCCOCCOCCOCCOCCOCCOCCOCCOCCOCCNC(=O)CC[C@H](NC(=O)CCCCCCCCCCCCCCCCC(=O)O)C(=O)O)CC(=O)CCOCCOCC[N+](C)(C)C)C(C)(C)SSC(C)(C)[C@@H](C(=O)N[C@@H](Cc2ccc(OCCCCC[N+](C)(C)C)cc2)C(=O)N[C@@H](Cc2ccc3ccccc3c2)C(=O)NC2(C(=O)N[C@@H](CCCCN(C)C(C)=O)C(=O)N[C@@H](CC(N)=O)C(=O)N[C@@H](Cc3cccnc3)C(=O)N(C)CC(=O)N(C)C)CCOCC2)NC1=O [compound 132, cPEG3aCO-k(PEG12gEC18OH)-Pen(3)-N(N(Me)2)-T-7MeW-K(NMeAc)-Pen(3)-TMAPF-2Nal-THP-K(NMeAc)-N-3Pya-Sar-CON(Me)2] ({C18 diacid-γGlu-PEG12}-[X15][Pen]D(NMe2)T[Trp(7-Me)][Lys(Me)](Ac)[Pen]Y(X1)[2Nal][Thp][Lys(Me)](Ac)N[3Pal][Sar]-NMe2; disulfide 2-7) | < 50 nM | < 0.5 nM
2 | CC(=O)NCCCC[C@@H]1NC(=O)[C@@H](Cc2c[nH]c3c(C)cccc23)NC(=O)[C@H]([C@@H](C)O)NC(=O)[C@H](CC(N)=O)NC(=O)[C@@H](NC(=O)[C@@H](CCCNC(=N)N)NC(=O)CCOCCOCCOCCOCCNC(=O)CCCC[C@@H]2SC[C@@H]3NC(=O)N[C@@H]32)C(C)(C)SSC(C)(C)[C@@H](C(=O)N[C@@H](Cc2ccc(OCCN)cc2)C(=O)N[C@@H](Cc2ccc3ccccc3c2)C(=O)NC2(C(=O)N[C@@H](CCC(=O)O)C(=O)N[C@@H](CC(N)=O)C(=O)N[C@@H](Cc3cccnc3)C(=O)N(C)CC(=O)N[C@@H](CCCCNC(=O)COCCCCCNC(=O)COCCOCCNC(=O)CC[C@H](NC(=O)CCCCCCCCCCCCCCCCC(=O)O)C(=O)O)C(N)=O)CCOCC2)NC1=O [compound 57, BiotinPEG4CO-r-Pen(3)-N-T-7MeW-K(Ac)-Pen(3)-AEF-2Nal-THP-E-N-3Pya-Sar-K(PEG2PEG2gEC18OH)-CONH2] ({Biotin-PEG4}-[dR][Pen]NT[dTrp(7-Me)]K(Ac)[Pen][AEF][2Nal][Thp]EN[3Pal][Sar]K(X22)-NH2; disulfide 2-7) | < 50 nM | < 0.5 nM
3 | Cc1cccc2c(C[C@@H]3NC(=O)[C@H]([C@@H](C)O)NC(=O)[C@H](CC(N)=O)NC(=O)[C@@H](NC(=O)[C@@H](CCCNC(=N)N)NC(=O)CCC(=O)N[C@H](CC(=O)O)C[N+](C)(C)C)C(C)(C)SSC(C)(C)[C@@H](C(=O)N[C@@H](Cc4ccc(OCCN)cc4)C(=O)N[C@@H](Cc4ccc5ccccc5c4)C(=O)NC4(C(=O)N[C@@H](CCC(=O)O)C(=O)N[C@@H](CC(N)=O)C(=O)N[C@@H](Cc5cccnc5)C(=O)N(C)CC(N)=O)CCOCC4)NC(=O)[C@H](CCCCNC(=O)COCCOCCNC(=O)COCCOCCNC(=O)CC[C@H](NC(=O)CCCCCCCCCCCCCCCCC(=O)O)C(=O)O)NC3=O)c[nH]c12 [compound 19, MeCO-r-Pen(3)-N-T-7MeW-K(PEG2PEG2gEC18OH)-Pen(3)-AEF-2Nal-THP-E-N-3Pya-NMeK(d)-CONH2] ({X2-Suc}-[dR][Pen]NT[Trp(7-Me)]K([AEEA-AEEA-γGlu-C18 diacid])[Pen][AEF][2Nal][Thp]EN[3Pal][Sar]-NH2; disulfide 2-7) | 50 to 500 nM | < 0.5 nM
4 | CC(=O)N(C)CCCC[C@@H]1NC(=O)[C@H](Cc2c[nH]c3c(C)cccc23)NC(=O)[C@H]([C@@H](C)O)NC(=O)[C@H](CC(=O)N(C)C)NC(=O)[C@@H](NC(=O)CCOCCOCC[N+](C)(C)C)C(C)(C)SSC(C)(C)[C@@H](C(=O)N[C@@H](Cc2ccc(OCCNC(=O)C[N+](C)(C)CCNC(=O)COCCOCCNC(=O)COCCOCCNC(=O)CC[C@H](NC(=O)CCCCCCCCCCCCCCCCCCC(=O)O)C(=O)O)cc2)C(=O)N[C@@H](Cc2ccc3ccccc3c2)C(=O)NC2(C(=O)N[C@@H](CCCCN(C)C(C)=O)C(=O)N[C@@H](CC(N)=O)C(=O)N[C@@H](Cc3cccnc3)C(=O)N(C)CC(=O)N(C)C)CCOCC2)NC1=O [compound 151, cPEG3aCO-Pen(3)-N(N(Me)2)-T-7MeW-K(NMeAc)-Pen(3)-AEF(SP6PEG2PEG2gEC20OH)-2Nal-THP-K(NMeAc)-N-3Pya-Sar-CON(Me)2] ({Me3N+(CH2)2O(CH2)2O(CH2)2CO}-[Pen]D(NMe2)T[Trp(7-Me)][Lys(Me)](Ac)[Pen][AEF](X27)[2Nal][Thp][Lys(Me)](Ac)N[3Pal][Sar]-NMe2; disulfide 1-6) | < 50 nM | < 0.5 nM

Second part, led by results:

Row | IC50 [1] | Structure (SMILES) | IC50 [2]
5 | < 50 nM | CC(=O)N(C)CCCC[C@@H]1NC(=O)[C@H](Cc2c[nH]c3c(C)cccc23)NC(=O)[C@H]([C@@H](C)O)NC(=O)[C@H](CC(=O)N(C)C)NC(=O)[C@@H](CC(=O)[C@H](C)CCCCNC(=O)COCCOCCNC(=O)COCCOCCNC(=O)CC[C@H](NC(=O)CCCCCCCCCCCCCCCCC(=O)O)C(=O)O)C(C)(C)SSC(C)(C)[C@@H](C(=O)N[C@@H](Cc2ccc(OCCOCCOCC[N+](C)(C)C)cc2)C(=O)N[C@@H](Cc2ccc3ccccc3c2)C(=O)NC2(C(=O)N[C@@H](CCCCN(C)C(C)=O)C(=O)N[C@@H](CC(N)=O)C(=O)N[C@@H](Cc3cccnc3)C(=O)N(C)CC(=O)N(C)C)CCOCC2)NC1=O [compound 159, cPEG3aCO-k(PEG2PEG2gEC18OH)-Pen(3)-N(N(Me)2)-T-7MeW-K(NMeAc)-Pen(3)-APEG3F-2Nal-THP-K(NMeAc)-N-3Pya-Sar-CON(Me)2] (D(NMe2)T[Trp(7-Me)][Lys(Me)](Ac)[Pen]Y(CH2CH2OCH2CH2OCH2CH2NMe3+)[2Nal][Thp][Lys(Me)](Ac)N[3Pal][Sar]-NMe2; linker N-5 via X29) | < 0.5 nM
6 | < 50 nM | CC(=O)NCCCC[C@@H]1NC(=O)[C@H](Cc2c[nH]c3c(C)cccc23)NC(=O)[C@H]([C@@H](C)O)NC(=O)[C@H](CCCCNC(=O)CCC(=O)N[C@H](CC(=O)O)C[N+](C)(C)C)NC(=O)[C@@H](NC(=O)[C@@H](CCCNC(=N)N)NC(C)=O)C(C)(C)SSC(C)(C)[C@@H](C(=O)N[C@@H](Cc2ccc(OCCNC(=O)COCCOCCNC(=O)COCCOCCNC(=O)CC[C@H](NC(=O)CCCCCCCCCCCCCCCCC(=O)O)C(=O)O)cc2)C(=O)N[C@@H](Cc2ccc3ccccc3c2)C(=O)NC2(C(=O)N[C@@H](CCC(=O)O)C(=O)N[C@@H](CC(N)=O)C(=O)N[C@@H](Cc3cccnc3)C(=O)N(C)CC(N)=O)CCOCC2)NC1=O [compound 10, MeCO-r-Pen(3)-K(d)-T-7MeW-K(Ac)-Pen(3)-AEF(PEG2PEG2gEC18OH)-2Nal-THP-E-N-3Pya-Sar-CONH2] (Ac-[dR][Pen]K([Suc-X2])T[Trp(7-Me)]K(Ac)[Pen][AEF]([AEEA-AEEA-γGlu-C18 diacid])[2Nal][Thp]EN[3Pal][Sar]-NH2; disulfide 2-7) | 0.5 to 5 nM
